Assay results reported in patent US9403831B2, “Triazolopyrazine derivative and use thereof” (KOREA RESEARCH INSTITUTE OF CHEMICAL TECHNOLOGY, priority 2013, dated 2016).
Counter-ions that a name gives are not always drawn.

How the values were obtained:
[1] = biological target: c-Met enzyme (Homo sapiens (Human), UniProt P08581); experiment: c-Met kinase inhibitory activity (DELFIA time-resolved fluorescence); type: biochemical; conditions: c-Met kinase activity reduced to 50%
Method: The c-Met kinase inhibitory activity was analyzed using dissociation enhanced lanthanide fluoro-immunoassay (DELFIA, Perkin Elmer), which is a kind of time-resolved fluorescence (TRF). […] of the compound prepared in the present invention, as a test compound, was put in a Greiner 96-well V-shaped bottom plate, and a tyrosin kinase buffer ([…]) mixed with a c-Met enzyme was added thereto, and then the enzyme and the test compound were stirred for 15 minutes, followed by culturing. An ATP solution ([…]) was added thereto to proceed with a kinase reaction at room temperature for 30 minutes, and then a 50 mM […] solution (EDTA, […]) was added to stop the reaction. After that, the reaction mixture was transferred to a plate coated with Streptavidin, followed by culturing under shaking. After 2 hours, the cultured material was washed three times with a PBS-T buffer (PBS 0.05% Tween 20).
The europium-labeled anti-phosphotyrosine antibody was diluted to 1:[…] of the diluent was added per well, followed by culturing under shaking. After 1 hour, the cultured material was washed three times with a PBS-T buffer (PBS 0.05% Tween 20).

[2] = tested on: gastric cancer cell line Hs746T; experiment: Cancer cell proliferation inhibitory test (SRB or MTS assay, 72 hours); type: cell-based; conditions: Homo sapiens, cancer cell (Hs746T) proliferation inhibition, culturing with compound for 72 hours
Method: The drug used in the test was diluted to a desired concentration as a test medium, and the final concentration of dimethyl sulfoxide was 0.5% or less.
All the cancer cell lines used in the test originated from the human body, and gastric cancer cell lines Hs746T and MKN-45 were used.
5×10^3 cells of Hs746T were dispensed to each well of the 96-well flat bottom micro-plate. MKN-45 was dispensed at 1×10^4 cells. The cells were cultured for 24 hours, so that the cells adhered to the bottom, and then the culture liquid was removed. The culture liquid containing each of the compounds of the present invention was added, followed by culturing for 72 hours. After the culturing with the compound was completed, the cytotoxicity was measured using protein stain reagent SRB or MTS assay.
Specifically, after the culturing with the compound of the present invention was completed, the cultured liquid was removed. Each well was treated with a cool TCA solution, and allowed to stand at 4° C. for 1 hour to fix cells. The TCA solution was removed, followed by drying at room temperature, and then a stain solution containing 0.4% SRB dissolved in 1% acetic acid solution was added, and then the mixture was allowed to stand for 30 minutes to stain cells. […] The absorbance of each well was measured at a wavelength range of 520 nm using an Eliza reader (micro-plate reader).
The drug cytotoxicity was measured from the OD values for the well added without the drug (C), each well added with the drug (T), and the well initially added with the drug (Tz): [(T−Tz)/(C−Tz)]×100 for […]; or [(T−Tz)/(Tz)]×100 for Tz>T.
The cancer cell inhibitory activity measurement using MTS assay was conducted as follows. Specifically, after the culturing with the compound of the present invention was completed, the PMS solution and MTS solution constituting the CellTiter 96® AQueous Non-Radioactive Cell Proliferation Assay product from Promega Co. were mixed, and 20 μL was put into each well. After the cells were placed in an incubator for 4 hours, and then taken out and allowed to stand at room temperature for 10 minutes.

Sequence of c-Met enzyme (P08581 25-1390): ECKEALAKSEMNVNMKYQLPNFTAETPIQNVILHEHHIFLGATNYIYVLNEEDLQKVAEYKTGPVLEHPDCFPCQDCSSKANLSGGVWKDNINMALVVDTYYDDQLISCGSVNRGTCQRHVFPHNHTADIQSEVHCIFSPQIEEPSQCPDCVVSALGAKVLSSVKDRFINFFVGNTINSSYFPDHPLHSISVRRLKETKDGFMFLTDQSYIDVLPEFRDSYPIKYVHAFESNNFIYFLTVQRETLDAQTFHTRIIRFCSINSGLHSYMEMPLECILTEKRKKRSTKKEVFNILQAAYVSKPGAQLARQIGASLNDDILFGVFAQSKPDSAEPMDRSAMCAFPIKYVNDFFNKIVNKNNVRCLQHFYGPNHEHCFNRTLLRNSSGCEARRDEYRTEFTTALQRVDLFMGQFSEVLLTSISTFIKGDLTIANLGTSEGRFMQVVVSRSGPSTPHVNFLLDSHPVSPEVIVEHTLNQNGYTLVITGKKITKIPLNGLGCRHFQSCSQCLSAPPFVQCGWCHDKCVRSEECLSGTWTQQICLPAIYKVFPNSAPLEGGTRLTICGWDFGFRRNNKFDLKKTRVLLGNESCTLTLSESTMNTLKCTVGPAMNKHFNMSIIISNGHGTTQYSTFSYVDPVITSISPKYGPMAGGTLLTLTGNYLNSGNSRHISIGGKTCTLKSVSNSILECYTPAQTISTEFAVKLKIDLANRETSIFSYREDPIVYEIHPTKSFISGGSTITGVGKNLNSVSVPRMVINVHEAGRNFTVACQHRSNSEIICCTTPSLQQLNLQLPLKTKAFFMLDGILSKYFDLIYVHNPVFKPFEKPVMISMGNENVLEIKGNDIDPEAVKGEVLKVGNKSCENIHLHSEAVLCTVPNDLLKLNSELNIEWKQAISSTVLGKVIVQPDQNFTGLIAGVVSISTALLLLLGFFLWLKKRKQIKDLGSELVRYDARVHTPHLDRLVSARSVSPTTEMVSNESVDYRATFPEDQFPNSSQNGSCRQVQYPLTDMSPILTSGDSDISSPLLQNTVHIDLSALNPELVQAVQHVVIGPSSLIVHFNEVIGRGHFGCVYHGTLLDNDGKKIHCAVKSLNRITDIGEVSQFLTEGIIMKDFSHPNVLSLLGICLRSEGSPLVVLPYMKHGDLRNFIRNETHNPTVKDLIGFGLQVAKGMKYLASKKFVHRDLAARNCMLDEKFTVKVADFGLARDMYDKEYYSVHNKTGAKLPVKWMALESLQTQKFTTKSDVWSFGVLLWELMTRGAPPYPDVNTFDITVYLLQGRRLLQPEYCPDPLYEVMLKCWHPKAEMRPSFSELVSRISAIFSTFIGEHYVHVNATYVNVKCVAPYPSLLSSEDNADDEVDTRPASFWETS

Row | SMILES | IC50 [1] [nM] | IC50 [2] [nM]
1 | CN1CCN(Cc2ccc(-c3cnc(N4CCO[C@H](Cn5nnc6ncc(-c7cccc(C#N)c7)nc65)C4)nc3)cc2)CC1 [Chemical formula 49, (S)-3-(1-((4-(5-(4-((4-methylpiperazin-1-yl)methyl)phenyl)pyrimidin-2-yl)morpholin-2-yl)methyl)-1H-[1,2,3]triazolo[4,5-b]pyrazin-6-yl)benzonitrile] | 8 | 
2 | CN1CCN(C(=O)c2ccc(-c3cnc(N4CCC[C@H](Cn5nnc6ncc(-c7cnn(C)c7)nc65)C4)nc3)cc2)CC1 [Chemical formula 48, (S)-(4-(2-(3-((6-(1-methyl-1H-pyrazol-4-yl)-1H-[1,2,3]triazolo[4,5-b]pyrazin-1-yl)methyl)piperidin-1-yl)pyrimidin-5-yl)phenyl)(4-methylpiperazin-1-yl)methanone] | 6 | 
3 | Cn1cc(-c2cnc3nnn(C[C@@H]4CN(c5ncc(-c6cnn(C7CCN(CCO)CC7)c6)cn5)CCO4)c3n2)cn1 [Chemical formula 8, (S)-2-(4-(4-(2-(2-((6-(1-methyl-1H-pyrazol-4-yl)-1H-[1,2,3]triazolo[4,5-b]pyrazin-1-yl)methyl)morpholino)pyrimidin-5-yl)-1H-pyrazol-1-yl)piperidin-1-yl)ethanol] | 4 | 0.14
4 | Cn1cc(-c2cnc3nnn(C[C@@H]4CN(c5ncc(-c6cnn(C7CCNCC7)c6)cn5)CCO4)c3n2)cn1 [Chemical formula 4, (S)-2-((6-(1-methyl-1H-pyrazol-4-yl)-1H-[1,2,3]triazolo[4,5-b]pyrazin-1-yl)methyl)-4-(5-(1-(piperidin-4-yl)-1H-pyrazol-4-yl)pyrimidin-2-yl)morpholine HCl salt] | 11 | 1.2
5 | Cn1cc(-c2cnc3nnn(C[C@@H]4CN(c5ncc(-c6ccc(CN7CCOCC7)c(F)c6)cn5)CCO4)c3n2)cn1 [Chemical formula 42, (S)-4-(5-(3-fluoro-4-(morpholinomethyl)phenyl)pyrimidin-2-yl)-2-((6-(1-methyl-1H-pyrazol-4-yl)-1H-[1,2,3]triazolo[4,5-b]pyrazin-1-yl)methyl)morpholine] | 4 | 
6 | CN1CC=C(c2cnc(N3CCCC(Cn4nnc5ncc(-c6cnn(C)c6)nc54)C3)nc2)CC1 (stereo not shown) [Chemical formula 34, 1-((1-(5-(1-methyl-1,2,3,6-tetrahydropyridin-4-yl)pyrimidin-2-yl)piperidin-3-yl)methyl)-6-(1-methyl-1H-pyrazol-4-yl)-1H-[1,2,3]triazolo[4,5-b]pyrazine] | 3 | 15
7 | Cn1cc(-c2cnc3nnn(C[C@@H]4CN(c5ncc(-c6ccc(CN7CCOCC7)cc6)cn5)CCO4)c3n2)cn1 [Chemical formula 18, (S)-2-((6-(1-methyl-1H-pyrazol-4-yl)-1H-[1,2,3]triazolo[4,5-b]pyrazin-1-yl)methyl)-4-(5-(4-(morpholinomethyl)phenyl)pyrimidin-2-yl)morpholine] | 5 | 9.6
8 | CN1CCN(Cc2ccc(-c3cnc(N4CCO[C@H](Cn5nnc6ncc(-c7ccc(F)c(C#N)c7)nc65)C4)nc3)cc2F)CC1 [Chemical formula 39, (S)-2-fluoro-5-(1-((4-(5-(3-fluoro-4-((4-methylpiperazin-1-yl)methyl)phenyl)pyrimidin-2-yl)morpholine-2-yl)methyl)-1H-[1,2,3]triazolo[4,5-b]pyrazin-6-yl)benzonitrile] | 2 | 
9 | Cn1cc(-c2cnc3nnn(C[C@@H]4CN(c5ncc(-c6ccc(OCCN7CCOCC7)c(F)c6)cn5)CCO4)c3n2)cn1 [Chemical formula 13, (S)-4-(5-(3-fluoro-4-(2-morpholinoethoxy)phenyl)pyrimidin-2-yl)-2-((6-(1-methyl-1H-pyrazol-4-yl)-1H-[1,2,3]triazolo[4,5-b]pyrazin-1-yl)methyl)morpholine] | 15 | 0.86
10 | Cn1cc(-c2cnc3nnn(C[C@@H]4CN(c5ncc(-c6ccc(OCCN7CCOCC7)cc6)cn5)CCO4)c3n2)cn1 [Chemical formula 14, (S)-2-((6-(1-methyl-1H-pyrazol-4-yl)-1H-[1,2,3]triazolo[4,5-b]pyrazin-1-yl)methyl)-4-(5-(4-(2-morpholinoethoxy)phenyl)pyrimidin-2-yl)morpholine] | 14 | 4.1
11 | CC(=O)N1CCN(Cc2ccc(-c3cnc(N4CCO[C@H](Cn5nnc6ncc(-c7cnn(C)c7)nc65)C4)nc3)cc2)CC1 [Chemical formula 45, (S)-1-(4-(4-(2-(2-((6-(1-methyl-1H-pyrazol-4-yl)-1H-[1,2,3]triazolo[4,5-b]pyrazin-1-yl)methyl)morpholino)pyrimidin-5-yl)benzyl)piperazin-1-yl)ethanone] | 8 | 
12 | N#Cc1cc(-c2cnc3nnn(C[C@@H]4CN(c5ncc(C6=CCN(CCO)CC6)cn5)CCO4)c3n2)ccc1F [Chemical formula 38, (S)-2-fluoro-5-(1-((4-(5-(1-(2-hydroxyethyl)-1,2,3,6-tetrahydropyridin-4-yl)pyrimidin-2-yl)morpholine-2-yl)methyl)-1H-[1,2,3]triazolo[4,5-b]pyrazin-6-yl)benzonitrile] | 3 | 
13 | CN1CCN(CCOc2ccc(-c3cnc(N4CCO[C@H](Cn5nnc6ncc(-c7cnn(C)c7)nc65)C4)nc3)cc2)CC1 [Chemical formula 15, (S)-2-((6-(1-methyl-1H-pyrazol-4-yl)-1H-[1,2,3]triazolo[4,5-b]pyrazin-1-yl)methyl)-4-(5-(4-(2-(4-methylpiperazin-1-yl)ethoxy)phenyl)pyrimidin-2-yl)morpholine] | 6 | 
14 | Cn1cc(-c2cnc3nnn(C[C@@H]4CN(c5ncc(OCCN6CCOCC6)cn5)CCO4)c3n2)cn1 [Chemical formula 16, (S)-2-((6-(1-methyl-1H-pyrazol-4-yl)-1H-[1,2,3]triazolo[4,5-b]pyrazin-1-yl)methyl)-4-(5-(2-morpholinoethoxy)pyrimidin-2-yl)morpholine] |  | 2.1
15 | CN1CCN(C(=O)c2ccc(-c3cnc(N4CCO[C@H](Cn5nnc6ncc(-c7cnn(C)c7)nc65)C4)nc3)cc2)CC1 [Chemical formula 47, (S)-(4-(2-(2-((6-(1-methyl-1H-pyrazol-4-yl)-1H-[1,2,3]triazolo[4,5-b]pyrazin-1-yl)methyl)morpholino)pyrimidin-5-yl)phenyl)(4-methylpiperazin-1-yl) methanone] | 13 | 
16 | Cn1cc(-c2cnc3nnn(CC4CCCN(c5ncc(-c6cnn(CCO)c6)cn5)C4)c3n2)cn1 (stereo not shown) [Chemical formula 36, 2-(3-(2-(3-((6-(1-methyl-1H-pyrazol-4-yl)-1H-[1,2,3]triazolo[4,5-b]pyrazin-1-yl)methyl)piperidin-1-yl)pyrimidin-5-yl)-1H-pyrazol-1-yl)ethanolhydrochloride] | 2 | 3.8
17 | Cn1cc(-c2cnc3nnn(C[C@@H]4CN(c5ncc(-c6cnn(CCO)c6)cn5)CCO4)c3n2)cn1 [Chemical formula 11, (S)-2-(4-(2-(2-((6-(1-methyl-1H-pyrazol-4-yl)-1H-[1,2,3]triazolo[4,5-b]pyrazin-1-yl)methyl)morpholino)pyrimidin-5-yl)-1H-pyrazol-1-yl)ethanol hydrochloride] | 3 | 0.93
18 | N#Cc1cc(-c2cnc3nnn(C[C@@H]4CN(c5ncc(C6=CCNCC6)cn5)CCO4)c3n2)ccc1F [Chemical formula 30, (S)-2-fluoro-5-(1-((4-(5-(1,2,3,6-tetrahydropyridin-4-yl)pyrimidin-2-yl)morpholine-2-yl)methyl)-1H-[1,2,3]triazolo[4,5-b]pyrazin-6-yl)benzonitrile] | 2 | 0.11
19 | CN1CCN(Cc2ccc(-c3cnc(N4CCO[C@H](Cn5nnc6ncc(-c7cnn(C)c7)nc65)C4)nc3)cc2F)CC1 [Chemical formula 40, (S)-4-(5-(3-fluoro-4-((4-methylpiperazin-1-yl)methyl)phenyl)pyrimidin-2-yl)-2-((6-(1-methyl-1H-pyrazol-4-yl)-1H-[1,2,3]triazolo[4,5-b]pyrazin-1-yl)methyl)morpholine] | 2 | 
